From patent publication US20220187282A1, “CARDIOMYOCYTE PROLIFERATION” (The Council of the Queensland Institute of Medical Research, priority 2019, published 2022)
Where two headings read alike, the source gives them in different places.

How the values were obtained:
Type in all cases: biochemical
kinases [1] = target: kinases (Homo sapiens, UniProt Q9NRM7); details: LATS2 FRET-Lantha SP; Test Conc(μM) 1
kinases [2] = target: kinases (Homo sapiens, UniProt Q9HBH9); details: MKNK2 (MNK2) FRET-Lantha SP; Test Conc(μM) 1
kinases [3] = target: kinases (Homo sapiens, UniProt Q8NEB9); details: PIK3C3 (hVPS34) *Mn* Adapta SP; Test Conc(μM):ATP Conc(μM) 1:10
kinases [4] = target: kinases (Homo sapiens, UniProt Q15303); details: ERBB4 (HER4) *Mn* Z-Lyte SP; Test Conc(μM):ATP Conc(μM) 1:5
kinases [5] = target: kinases (Homo sapiens, UniProt Q16539)
kinases [6] = target: kinases (Homo sapiens, UniProt P48736); details: PIK3CG (p110 gamma) Adapta SP; Test Conc(μM):ATP Conc(μM) 1:25
kinases [7] = target: kinases (Homo sapiens, UniProt Q99558); details: MAP3K14 (NIK) FRET-Lantha SP; Test Conc(μM) 1
kinases [8] = target: kinases (Homo sapiens, UniProt P07333); details: CSF1R (FMS) FRET-Z-Lyte SP; Test Conc(μM):ATP Conc(μM) 1:500
kinases [9] = target: kinases (Homo sapiens, UniProt Q9Y6M4); details: CSNK1G3 (CK1gamma3) Z-Lyte SP; Test Conc(μM):ATP Conc(μM) 1:5
kinases [10] = target: kinases (Homo sapiens, UniProt Q6VAB6); details: KSR2 FRET-Z-Lyte SP; Test Conc(μM):ATP Conc(μM) 1:10
kinases [11] = target: kinases (Homo sapiens, UniProt Q7KZI7); details: MARK2 FRET-Z-Lyte SP; Test Conc(μM):ATP Conc(μM) 1:10
kinases [12] = target: kinases (Homo sapiens, UniProt Q13464); details: ROCK1 FRET-Z-Lyte SP; Test Conc(μM):ATP Conc(μM) 1:5
kinases [13] = target: kinases (Homo sapiens, UniProt Q86UE8); details: TLK2 FRET-Lantha SP; Test Conc(μM) 1
kinases [14] = target: kinases (Homo sapiens, UniProt P29323); details: EPHB2 FRET-Z-Lyte SP; Test Conc(μM):ATP Conc(μM) 1:75
kinases [15] = target: kinases (Homo sapiens, UniProt O76039); details: CDKL5 FRET-Z-Lyte SP; Test Conc(μM):ATP Conc(μM) 1:500
kinases [16] = target: kinases (Homo sapiens, UniProt P08922); details: ROS1 FRET-Z-Lyte SP; Test Conc(μM):ATP Conc(μM) 1:50
kinases [17] = target: kinases (Homo sapiens, UniProt P08631); details: HCK FRET-Z-Lyte SP; Test Conc(μM):ATP Conc(μM) 1:25
kinases [18] = target: kinases (Homo sapiens, UniProt P12931); details: SRC Hu Phos FRET-Z-Lyte SP; Test Conc(μM):ATP Conc(μM) 1:50
kinases [19] = target: kinases (Homo sapiens, UniProt Q9NR20); details: DYRK4 FRET-Z-Lyte SP; Test Conc(μM):ATP Conc(μM) 1:5
kinases [20] = target: kinases (Homo sapiens, UniProt O95819); details: MAP4K4 (HGK) FRET-Z-Lyte SP; Test Conc(μM):ATP Conc(μM) 1:10
kinases [21] = target: kinases (Homo sapiens, UniProt P22612); details: PRKACG FRET-Lantha SP; Test Conc(μM) 1
kinases [22] = target: kinases (Homo sapiens, UniProt P19784); details: CSNK2A2 (CK2alpha2) Z-Lyte SP; Test Conc(μM):ATP Conc(μM) 1:50
kinases [23] = target: kinases (Homo sapiens, UniProt Q13976); details: PRKG1 FRET-Z-Lyte SP; Test Conc(μM):ATP Conc(μM) 1:25
kinases [24] = target: kinases (Homo sapiens, UniProt P68400); details: CSNK2A1 (CK2alpha1) Z-Lyte SP; Test Conc(μM):ATP Conc(μM) 1:5
kinases [25] = target: kinases (Homo sapiens, UniProt O75582); details: RPS6KA5 (MSK1) FRET-Z-Lyte SP; ATP Conc(μM):Test Conc(μM) 1:50
kinases [26] = target: kinases (Homo sapiens, UniProt Q04759); details: PRKCQ (PKC theta) Z-Lyte SP; Test Conc(μM):ATP Conc(μM) 1:100
kinases [27] = target: kinases (Homo sapiens, UniProt P05129); details: PRKCG (PKC gamma) Z-Lyte SP; Test Conc(μM):ATP Conc(μM) 1:25
kinases [28] = target: kinases (Homo sapiens, UniProt Q8N752); details: CSNK1A1L FRET-Z-Lyte SP; Test Conc(μM):ATP Conc(μM) 1:5
[29] = MAPK14 (p38a) Direct Z-Lyte SP, Test Conc(μM):ATP Conc(μM) 1:500
[30] = MAPK14 (p38a)Cascade Z-Lyte SP, Test Conc(μM):ATP Conc(μM) 1:100

Sequence of kinases (Homo sapiens, UniProt Q16539) (Q16539 whole entry): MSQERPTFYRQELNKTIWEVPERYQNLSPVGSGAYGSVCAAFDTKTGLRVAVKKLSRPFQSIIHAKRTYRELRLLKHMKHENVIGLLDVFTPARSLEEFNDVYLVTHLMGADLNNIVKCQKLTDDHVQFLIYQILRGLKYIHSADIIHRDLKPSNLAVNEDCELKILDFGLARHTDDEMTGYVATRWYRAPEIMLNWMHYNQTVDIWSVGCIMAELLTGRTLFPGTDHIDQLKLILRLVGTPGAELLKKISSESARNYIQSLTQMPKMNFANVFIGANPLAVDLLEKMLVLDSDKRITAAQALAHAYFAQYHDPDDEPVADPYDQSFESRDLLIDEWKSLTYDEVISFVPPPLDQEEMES
Sequence of kinases (Homo sapiens, UniProt P29323) (P29323 19-1055): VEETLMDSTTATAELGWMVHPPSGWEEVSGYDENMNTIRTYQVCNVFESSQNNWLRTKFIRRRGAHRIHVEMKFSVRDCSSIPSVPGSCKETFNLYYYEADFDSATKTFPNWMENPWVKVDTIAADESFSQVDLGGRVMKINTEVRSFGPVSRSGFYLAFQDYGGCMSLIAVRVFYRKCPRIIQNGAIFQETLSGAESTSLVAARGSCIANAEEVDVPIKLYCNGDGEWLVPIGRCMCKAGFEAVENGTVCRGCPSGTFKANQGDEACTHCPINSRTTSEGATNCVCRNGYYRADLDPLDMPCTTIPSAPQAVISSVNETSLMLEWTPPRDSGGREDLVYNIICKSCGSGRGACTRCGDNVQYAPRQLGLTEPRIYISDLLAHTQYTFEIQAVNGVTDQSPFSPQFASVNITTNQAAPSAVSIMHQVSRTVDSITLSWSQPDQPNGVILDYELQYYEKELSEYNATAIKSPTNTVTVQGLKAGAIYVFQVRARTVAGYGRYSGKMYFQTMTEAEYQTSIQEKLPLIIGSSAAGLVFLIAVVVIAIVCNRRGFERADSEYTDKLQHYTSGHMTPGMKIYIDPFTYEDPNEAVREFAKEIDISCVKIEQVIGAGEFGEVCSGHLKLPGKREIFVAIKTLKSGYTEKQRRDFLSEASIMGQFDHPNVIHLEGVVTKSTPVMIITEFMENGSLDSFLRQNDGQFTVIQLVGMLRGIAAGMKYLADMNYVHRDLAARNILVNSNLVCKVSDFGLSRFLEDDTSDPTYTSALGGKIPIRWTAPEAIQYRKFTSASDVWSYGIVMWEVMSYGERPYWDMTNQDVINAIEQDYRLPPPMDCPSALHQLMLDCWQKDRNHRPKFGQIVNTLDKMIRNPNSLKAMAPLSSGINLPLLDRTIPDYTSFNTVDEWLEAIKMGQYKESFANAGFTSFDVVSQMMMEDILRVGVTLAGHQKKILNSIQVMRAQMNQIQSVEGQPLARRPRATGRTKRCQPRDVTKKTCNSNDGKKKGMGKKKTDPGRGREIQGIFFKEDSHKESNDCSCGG
Sequence of kinases (Homo sapiens, UniProt O95819) (O95819 whole entry): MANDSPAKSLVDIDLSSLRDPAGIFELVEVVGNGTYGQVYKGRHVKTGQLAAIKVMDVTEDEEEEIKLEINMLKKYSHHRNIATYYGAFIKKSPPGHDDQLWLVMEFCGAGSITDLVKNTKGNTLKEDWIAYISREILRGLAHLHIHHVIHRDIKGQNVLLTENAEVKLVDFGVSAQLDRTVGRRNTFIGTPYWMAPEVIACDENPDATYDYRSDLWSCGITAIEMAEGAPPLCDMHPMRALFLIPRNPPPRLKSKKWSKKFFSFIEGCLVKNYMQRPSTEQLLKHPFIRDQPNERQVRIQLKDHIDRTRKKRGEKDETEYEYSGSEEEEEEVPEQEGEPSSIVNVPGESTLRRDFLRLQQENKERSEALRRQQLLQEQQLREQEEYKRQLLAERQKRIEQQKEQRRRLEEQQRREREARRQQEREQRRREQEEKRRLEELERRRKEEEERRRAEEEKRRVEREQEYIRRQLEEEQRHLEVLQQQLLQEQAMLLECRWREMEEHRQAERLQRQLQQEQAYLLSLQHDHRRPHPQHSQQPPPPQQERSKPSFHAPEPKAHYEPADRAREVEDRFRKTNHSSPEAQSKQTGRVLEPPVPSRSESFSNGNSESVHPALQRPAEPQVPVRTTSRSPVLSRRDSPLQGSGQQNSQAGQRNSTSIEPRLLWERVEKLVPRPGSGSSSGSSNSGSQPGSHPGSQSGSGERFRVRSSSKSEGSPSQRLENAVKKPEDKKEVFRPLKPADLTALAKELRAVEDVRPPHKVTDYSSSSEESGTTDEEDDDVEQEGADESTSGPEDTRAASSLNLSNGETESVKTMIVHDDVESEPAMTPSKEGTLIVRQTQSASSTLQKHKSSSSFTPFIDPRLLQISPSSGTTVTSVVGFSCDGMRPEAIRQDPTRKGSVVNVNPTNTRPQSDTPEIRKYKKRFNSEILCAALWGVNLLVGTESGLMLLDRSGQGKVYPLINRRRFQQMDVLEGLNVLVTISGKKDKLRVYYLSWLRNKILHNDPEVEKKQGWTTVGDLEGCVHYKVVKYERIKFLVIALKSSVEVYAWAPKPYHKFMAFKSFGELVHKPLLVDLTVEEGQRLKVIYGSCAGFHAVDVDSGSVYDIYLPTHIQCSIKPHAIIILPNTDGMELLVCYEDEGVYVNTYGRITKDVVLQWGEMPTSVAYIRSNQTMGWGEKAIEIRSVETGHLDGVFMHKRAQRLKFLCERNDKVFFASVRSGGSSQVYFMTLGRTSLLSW
Sequence of kinases (Homo sapiens, UniProt Q86UE8) (Q86UE8 whole entry): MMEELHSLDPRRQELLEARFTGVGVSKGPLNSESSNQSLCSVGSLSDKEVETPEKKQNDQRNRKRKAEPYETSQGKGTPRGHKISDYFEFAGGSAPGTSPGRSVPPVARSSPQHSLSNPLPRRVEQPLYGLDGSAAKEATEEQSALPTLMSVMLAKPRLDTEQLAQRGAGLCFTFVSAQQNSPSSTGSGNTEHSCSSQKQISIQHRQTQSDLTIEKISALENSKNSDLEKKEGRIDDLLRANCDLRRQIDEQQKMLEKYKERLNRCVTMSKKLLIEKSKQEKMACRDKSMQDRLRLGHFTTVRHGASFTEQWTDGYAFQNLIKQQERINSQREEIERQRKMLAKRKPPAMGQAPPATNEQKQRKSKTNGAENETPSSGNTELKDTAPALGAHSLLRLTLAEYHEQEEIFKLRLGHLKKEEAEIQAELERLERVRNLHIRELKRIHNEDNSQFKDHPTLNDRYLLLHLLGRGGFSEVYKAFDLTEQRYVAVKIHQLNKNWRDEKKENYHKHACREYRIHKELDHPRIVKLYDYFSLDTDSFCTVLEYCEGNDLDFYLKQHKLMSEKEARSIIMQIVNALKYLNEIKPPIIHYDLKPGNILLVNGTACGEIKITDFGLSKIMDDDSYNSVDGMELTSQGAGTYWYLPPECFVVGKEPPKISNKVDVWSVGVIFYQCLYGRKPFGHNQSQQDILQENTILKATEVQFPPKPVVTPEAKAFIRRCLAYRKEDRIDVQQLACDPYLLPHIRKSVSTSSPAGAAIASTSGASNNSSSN
Sequence of kinases (Homo sapiens, UniProt Q9NR20) (Q9NR20 whole entry): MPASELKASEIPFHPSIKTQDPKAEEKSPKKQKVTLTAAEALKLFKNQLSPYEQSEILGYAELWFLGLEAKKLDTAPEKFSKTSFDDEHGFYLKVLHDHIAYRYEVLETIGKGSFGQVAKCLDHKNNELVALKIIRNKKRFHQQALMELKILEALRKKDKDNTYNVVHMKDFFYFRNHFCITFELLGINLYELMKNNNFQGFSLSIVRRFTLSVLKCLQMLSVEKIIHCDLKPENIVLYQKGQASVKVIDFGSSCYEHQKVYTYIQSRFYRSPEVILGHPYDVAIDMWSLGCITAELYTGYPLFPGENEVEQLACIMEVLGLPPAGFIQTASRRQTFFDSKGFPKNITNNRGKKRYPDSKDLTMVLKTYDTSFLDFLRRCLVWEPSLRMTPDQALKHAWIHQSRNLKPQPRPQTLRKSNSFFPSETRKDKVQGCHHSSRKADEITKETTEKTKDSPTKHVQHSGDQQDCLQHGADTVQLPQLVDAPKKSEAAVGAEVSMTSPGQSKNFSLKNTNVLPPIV
Sequence of kinases (Homo sapiens, UniProt Q8NEB9) (Q8NEB9 whole entry): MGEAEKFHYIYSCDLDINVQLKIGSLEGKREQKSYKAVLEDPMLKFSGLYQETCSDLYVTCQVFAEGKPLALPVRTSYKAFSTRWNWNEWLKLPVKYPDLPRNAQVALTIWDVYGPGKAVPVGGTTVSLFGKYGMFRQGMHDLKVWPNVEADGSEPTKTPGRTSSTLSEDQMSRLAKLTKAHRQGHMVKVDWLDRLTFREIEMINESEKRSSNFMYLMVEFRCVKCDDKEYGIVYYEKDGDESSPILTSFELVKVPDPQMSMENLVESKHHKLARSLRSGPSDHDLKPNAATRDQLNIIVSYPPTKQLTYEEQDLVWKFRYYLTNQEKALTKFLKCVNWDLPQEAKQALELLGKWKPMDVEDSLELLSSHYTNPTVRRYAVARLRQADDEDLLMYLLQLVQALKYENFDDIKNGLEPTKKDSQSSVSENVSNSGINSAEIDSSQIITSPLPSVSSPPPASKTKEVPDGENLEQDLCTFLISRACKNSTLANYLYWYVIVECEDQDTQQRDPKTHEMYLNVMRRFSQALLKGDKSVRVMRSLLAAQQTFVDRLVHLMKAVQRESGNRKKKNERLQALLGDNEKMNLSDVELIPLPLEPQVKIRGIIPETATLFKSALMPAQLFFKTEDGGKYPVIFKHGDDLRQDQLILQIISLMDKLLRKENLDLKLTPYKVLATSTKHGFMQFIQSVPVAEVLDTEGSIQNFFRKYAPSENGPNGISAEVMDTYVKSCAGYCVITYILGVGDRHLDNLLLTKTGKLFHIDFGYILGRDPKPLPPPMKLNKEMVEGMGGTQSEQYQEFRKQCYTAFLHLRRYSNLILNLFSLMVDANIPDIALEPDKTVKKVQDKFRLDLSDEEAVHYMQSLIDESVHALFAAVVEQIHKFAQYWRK

Row | SMILES | Mean Inhib (%) (kinases [1]) | Mean Inhib (%) (kinases [2]) | Mean Inhib (%) (kinases [3]) | Mean Inhib (%) (kinases [4]) | Mean Inhib (%) (kinases [5]; [29]) | Mean Inhib (%) (kinases [5]; [30]) | Mean Inhib (%) (kinases [6]) | Mean Inhib (%) (kinases [7]) | Mean Inhib (%) (kinases [8]) | Mean Inhib (%) (kinases [9]) | Mean Inhib (%) (kinases [10]) | Mean Inhib (%) (kinases [11]) | Mean Inhib (%) (kinases [12]) | Mean Inhib (%) (kinases [13]) | Mean Inhib (%) (kinases [14]) | Mean Inhib (%) (kinases [15]) | Mean Inhib (%) (kinases [16]) | Mean Inhib (%) (kinases [17]) | Mean Inhib (%) (kinases [18]) | Mean Inhib (%) (kinases [19]) | other results
1 | Cc1ccc(NC(=O)c2ccnc(N3CCOCC3)c2)cc1Nc1ccnc(N2CC(C)OC(C)C2)n1 (stereo not shown) [compound 3] | 0.5 | 2.2 | 3.5 | 0.8 | 79.8 | 59.0 | 7.4 | −1.3 | 12.1 | 2.9 | 3.9 | 7.4 | 45.9 | −2.9 | 6.1 | 13.9 | 10.0 | 6.4 | 14.3 | 0.9 | Mean Inhib (%) (kinases [20]): 16.9%; Mean Inhib (%) (kinases [21]): 0.7%; Mean Inhib (%) (kinases [22]): 9.9%; Mean Inhib (%) (kinases [23]): 5.7%; Mean Inhib (%) (kinases [24]): 6.1%; Mean Inhib (%) (kinases [25]): 1.6%; Mean Inhib (%) (kinases [26]): 15.6%; Mean Inhib (%) (kinases [27]): 20.4%; Mean Inhib (%) (kinases [28]): 2.0%
2 | Cc1cc(Oc2ccnc(Nc3ccc(S(N)(=O)=O)cc3)c2)c(-c2ccccn2)nc1C [compound 65] | 4.9 | 2.7 | 1.1 | 3.4 | 19.9 | 13.5 | 9.1 | 4.9 | 20.0 | 0.1 | 1.6 | 3.8 | 1.6 | −4.8 | 58.7 | 9.8 | 8.9 | 30.9 | 54.4 | −4.9 | Mean Inhib (%) (kinases [20]): 12.0%; Mean Inhib (%) (kinases [21]): 2.2%; Mean Inhib (%) (kinases [22]): 9.5%; Mean Inhib (%) (kinases [23]): 0.3%; Mean Inhib (%) (kinases [24]): 2.4%; Mean Inhib (%) (kinases [25]): 10.0%; Mean Inhib (%) (kinases [26]): 5.9%; Mean Inhib (%) (kinases [27]): −13.8%; Mean Inhib (%) (kinases [28]): 0.5%
